Data from PubChem BioAssay (NCI).
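Step 1: Grow cells in 96-well plates. Step 2: Expose to compound for 48 hours at 5 concentrations. Step 3: Interpolate endpoints linearly; if unreached, use highest concentration. At the GI50, growth is halved. The concentration for full growth arrest is given as TGI.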

Legend:
Experiment in all cases: growth of human tumour cells (NCI), 48 h
[1] = system: 786-0 renal
[2] = system: A498 renal
[3] = system: A549 NSCLC
[4] = system: ACHN renal
[5] = system: BT-549 breast
[6] = system: CAKI-1 renal
[7] = system: CCRF-CEM leukemia
[8] = system: COLO 205 colon
[9] = system: DU-145 prostate
[10] = system: EKVX NSCLC
[11] = system: HCC-2998 colon
[12] = system: HCT-116 colon
[13] = system: HCT-15 colon
[14] = system: HL-60(TB) leukemia
[15] = system: HOP-62 NSCLC
[16] = system: HOP-92 NSCLC
[17] = system: HS 578T breast
[18] = system: HT29 colon
[19] = system: IGROV1 ovarian
[20] = system: K-562 leukemia
[21] = system: KM12 colon
[22] = system: LOX IMVI melanoma
[23] = system: M14 melanoma
[24] = system: MALME-3M melanoma
[25] = system: MCF7 breast
[26] = system: MDA-MB-231 breast
[27] = system: MDA-MB-435
[28] = system: MOLT-4 leukemia
[29] = system: NCI-H226 lung
[30] = system: NCI-H23 lung
[31] = system: NCI-H460 lung
[32] = system: NCI-H522 lung
[33] = system: NCI/ADR-RES ovarian
[34] = system: OVCAR-3 ovarian
[35] = system: OVCAR-4 ovarian
[36] = system: OVCAR-5 ovarian
[37] = system: OVCAR-8 ovarian
[38] = system: PC-3 prostate
[39] = system: RPMI-8226 leukemia
[40] = system: RXF 393 renal
[41] = system: SF-268 CNS
[42] = system: SF-295 CNS
[43] = system: SF-539 CNS
[44] = system: SK-MEL-2 melanoma
[45] = system: SK-MEL-28 melanoma
[46] = system: SK-MEL-5 melanoma
[47] = system: SK-OV-3 ovarian
[48] = system: SN12C renal
[49] = system: SNB-19 CNS
[50] = system: SNB-75 CNS
[51] = system: SR leukemia
[52] = system: SW-620 colon
[53] = system: T-47D breast
[54] = system: TK-10 renal
[55] = system: U251 CNS
[56] = system: UACC-257 melanoma
[57] = system: UACC-62 melanoma
[58] = system: UO-31 renal

SMILES: CCOc1ccc(C(=O)Nc2ncc(Cc3ccc(F)cc3)s2)cc1
- GI50 [1]: 340 nM
- TGI [1]: > 54500 nM
- GI50 [2]: > 34000 nM
- TGI [2]: > 90500 nM
- GI50 [3]: 257 nM
- TGI [3]: > 100000 nM
- GI50 [4]: 455 nM
- TGI [4]: > 100000 nM
- GI50 [5]: 1730 nM
- TGI [5]: > 100000 nM
- GI50 [6]: 74.9 nM
- TGI [6]: > 44200 nM
- GI50 [7]: 108 nM
- TGI [7]: > 52700 nM
- GI50 [8]: 164 nM
- GI50 [9]: 387 nM
- TGI [9]: > 100000 nM
- GI50 [10]: 347 nM
- TGI [10]: > 100000 nM
- GI50 [11]: 213 nM
- TGI [11]: > 100000 nM
- GI50 [12]: 93 nM
- TGI [12]: > 100000 nM
- GI50 [13]: 49.4 nM
- TGI [13]: > 100000 nM
- GI50 [14]: 52 nM
- TGI [14]: 4680 nM
- GI50 [15]: 309 nM
- TGI [15]: > 50000 nM
- GI50 [16]: 8750 nM
- TGI [16]: > 86100 nM
- GI50 [17]: 399 nM
- TGI [17]: > 39300 nM
- GI50 [18]: 77.1 nM
- GI50 [19]: 409 nM
- TGI [19]: > 100000 nM
- GI50 [20]: 44.3 nM
- TGI [20]: > 100000 nM
- GI50 [21]: 83.6 nM
- TGI [21]: > 100000 nM
- GI50 [22]: 145 nM
- TGI [22]: > 100000 nM
- GI50 [23]: 94.1 nM
- TGI [23]: > 100000 nM
- GI50 [24]: 1130 nM
- TGI [24]: > 100000 nM
- GI50 [25]: 53.7 nM
- TGI [25]: > 100000 nM
- GI50 [26]: 371 nM
- TGI [26]: > 86100 nM
- GI50 [27]: 22.1 nM
- TGI [27]: 55.1 nM
- GI50 [28]: 151 nM
- TGI [28]: > 100000 nM
- GI50 [29]: 319 nM
- TGI [29]: 7630 nM
- GI50 [30]: 466 nM
- TGI [30]: > 100000 nM
- GI50 [31]: 113 nM
- TGI [31]: > 100000 nM
- GI50 [32]: 78.1 nM
- TGI [32]: 375 nM
- GI50 [33]: 117 nM
- TGI [33]: > 100000 nM
- GI50 [34]: 162 nM
- TGI [34]: > 22200 nM
- GI50 [35]: 1630 nM
- TGI [35]: > 100000 nM
- GI50 [36]: 387 nM
- TGI [36]: > 100000 nM
- GI50 [37]: 376 nM
- TGI [37]: > 52300 nM
- GI50 [38]: 169 nM
- TGI [38]: > 100000 nM
- GI50 [39]: 157 nM
- TGI [39]: > 100000 nM
- GI50 [40]: 151 nM
- TGI [40]: 672 nM
- GI50 [41]: 4610 nM
- TGI [41]: > 91900 nM
- GI50 [42]: 144 nM
- TGI [42]: > 33000 nM
- GI50 [43]: 161 nM
- TGI [43]: 2750 nM
- GI50 [44]: 117 nM
- GI50 [45]: 1230 nM
- TGI [45]: > 100000 nM
- GI50 [46]: 322 nM
- TGI [46]: > 100000 nM
- GI50 [47]: 289 nM
- TGI [47]: > 64900 nM
- GI50 [48]: 345 nM
- TGI [48]: > 100000 nM
- GI50 [49]: 402 nM
- TGI [49]: > 100000 nM
- GI50 [50]: 69.3 nM
- TGI [50]: 3440 nM
- GI50 [51]: 34.4 nM
- TGI [51]: > 100000 nM
- GI50 [52]: 77.8 nM
- TGI [52]: > 100000 nM
- GI50 [53]: 248 nM
- TGI [53]: > 100000 nM
- GI50 [54]: 29300 nM
- TGI [54]: > 75900 nM
- GI50 [55]: 230 nM
- TGI [55]: > 62600 nM
- TGI [56]: > 100000 nM
- GI50 [57]: 107 nM
- TGI [57]: > 100000 nM
- GI50 [58]: 350 nM
- TGI [58]: > 66500 nM
